System: weed
Assay: Experiments varying water quality and application volumes
Format: in vivo
Settings: applied at recommended rates with these adjuvant systems
Source text: Mesotrione, (2-[4-methylsulfonyl-2-nitrobenzoyl]-1,3-cyclohexane dione), is a new broadleaf weed herbicide being developed for post emergence and preemergence use in corn. Adjuvants are highly preferred in order to optimise its post emergence activity. Glasshouse and field experiments have been conducted to evaluate weed and crop response to mesotrione applied post emergence with several adjuvant systems. Rates of mesotrione ranged from 50 to 140 g active ingredient (ai) per […]. Adjuvant systems tested include; • (i) no adjuvant (control), • (ii) crop oil concentrate (COC), • (iii) non-ionic surfactant (NIS), and • (iv) methylated seed oil (MSO), each with and without urea ammonium nitrate (UAN and ammonium sulphate (AMS) fertilizers.
The use of methylated seed oil with mesotrione increases the potential for crop injury.

CS(=O)(=O)c1ccc(C(=O)C2C(=O)CCCC2=O)c([N+](=O)[O-])c1 [mesotrione, 2-[4-methylsulfonyl-2-nitrobenzoyl]-1,3-cyclohexane dione]
impact of varying water quality and application volumes on activity: little or no impact

— US6890889B1, “Mesotrione formulations” (priority 2000, dated 2005)
